We go through four molecules from patent publication US4547371A, “Substituted cephalosporin sulfones as anti-inflammatory and anti-degenerative agents” (Merck & Co., Inc., priority 1983, dated 1985).

In the assay the target is T1, Human Polymorphonuclear Leukocyte Elastase (Homo sapiens, UniProt P08246).
T1 construct: Crude extract of human polymorphonuclear leukocytes (PMN) containing elastase activity; endogenous in cells; host or cells: human polymorphonuclear leukocytes (crude extract)
T1 sequence (P08246 30-247 limits assumed): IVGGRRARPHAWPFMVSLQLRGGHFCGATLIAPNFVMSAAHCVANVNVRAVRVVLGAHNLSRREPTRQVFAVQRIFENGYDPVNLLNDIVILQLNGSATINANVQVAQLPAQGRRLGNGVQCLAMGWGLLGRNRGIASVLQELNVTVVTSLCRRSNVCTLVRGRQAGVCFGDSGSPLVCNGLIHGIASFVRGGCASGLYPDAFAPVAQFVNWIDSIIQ
The assay can be described thus: Inhibition of human polymorphonuclear leukocyte elastase via hydrolysis of N-t-Boc-alanyl-alanyl-prolyl-alanine-p-nitroanilide. Conditions: effective dosage for 50% inhibition of the enzyme activity 2 minutes after zero time; crude human PMN extract, Boc-AAPAN substrate, pH 7.5, 410 mμ; read-out: ED50 (the source's name) (converted). It is filed as biochemical. As to the method:
Protocol--Enzyme Assays for the Inhibition of Human Polymorphonuclear Leukocyte Elastase Via Hydrolysis of N-t-Boc-alanyl-alanyl-prolylalanine-p-nitroanilide
0.05M TES (N-tris[hydroxymethyl]methyl-2-amino-ethanesulfonic acid) Buffer, pH 7.5.
0.2 mM N-t-Boc-alanyl-alanyl-prolyl-alanine-p-nitroanilide (Boc-AAPAN).
To prepare substrate, the solid (m.w. 550) was first dissolved in 10.0 ml DMSO. Buffer at pH 7.5 was then added to a final volume of 100 ml.
Crude extract of human polymorphonuclear leukocytes (PMN) containing elastase activity.
Inhibitors (cephalosporin sulfone esters) to be tested dissolved in DMSO just before use.
To 1.0 ml of 0.2 mM Boc-AAPAN in a cuvette, 0.01-0.1 ml of DMSO with or without inhibitor was added. After mixing, a measurement was taken at 410 mμ to detect any spontaneous hydrolysis due to presence of test compound. 0.05 Milliliters of PMN extract was then added and the ΔOD /min at 410 mμ was measured and recorded. Beckman model 35 spectrophotometer was used.
Results were reported as ED50, i.e., effective dosage in micrograms per milliliter (μg/ml) for 50% inhibition of the enzyme activity 2 minutes after zero time.
The elastase activity in the crude PMN extract may vary from one preparation to another. A control of each new batch is run, and the volume added in the assay procedure is adjusted according to activity.
With `O=C(OCc1ccccc1)C1=C(C(F)(F)F)CS(=O)(=O)[C@@H]2[C@@H](NC(=O)C(F)(F)F)C(=O)N12` (relative stereo) [CF3 CONH / CF3 / OCH2 .phi., Benzyl 3-trifluoromethyl-7α-trifluoromethylcarbonylamino-8-oxo-5-thia-1-azabicyclo[4.2.0]oct-2-ene-2-carboxylate-5,5-dioxide], the IC50 was 61.7 nM.

For `CC(C)(C)OC(=O)C1=C(C(F)(F)F)CS(=O)(=O)[C@@H]2[C@@H](NC(=O)C(F)(F)F)C(=O)N12` (relative stereo) [CF3 CONH / CF3 / OtBu, t-Butyl 3-trifluoromethyl-7α-trifluoromethylcarbonylamino-8-oxo-5-thia-1-azabicyclo[4.2.0]oct-2-ene-2-carboxylate-5,5-dioxide], the IC50 was 1770 nM. For `CC(=O)OCC1=C(C(=O)OCc2ccccc2)N2C(=O)[C@H](NC(=O)C(F)(F)F)[C@H]2S(=O)(=O)C1` [NHCOCF3 / CH2 OCOCH3 / OCH2 .phi., Benzyl 3-acetyloxymethyl-7α-trifluoromethylcarbonylamino-8-oxo-5-thia-1-azabicyclo[4.2.0]oct-2-ene-2-carboxylate-5,5-dioxide] the value was 81.6 nM. Turning to `COC(=O)N[C@H]1C(=O)N2C(C(=O)OCc3ccccc3)=C(COC(C)=O)CS(=O)(=O)[C@H]12` [NHCOOCH3 / CH2 OCOCH3 / OCH2 .phi., benzyl 3-acetyloxymethyl-7α-methoxycarbonylamino-8-oxo-5-thia-1-azabicyclo[4.2.0]oct-2-ene-2-carboxylate-5,5-dioxide], the IC50 was 663 nM.
